Source: PubChem BioAssay (NCI)
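Cultured in 96-well plates, cells were exposed to test compound for 48 hours across five concentrations. Abbreviation: GI50, concentration required for 50% inhibition of growth. TGI denotes the concentration required for complete inhibition of growth.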

Tests used:
Test in all cases: DTP human tumour cell line panel, 48 h
786-0 renal = tested on: 786-0 renal
CAKI-1 renal = tested on: CAKI-1 renal
NCI-H23 lung = tested on: NCI-H23 lung
SK-OV-3 ovarian = tested on: SK-OV-3 ovarian
K-562 leukemia = tested on: K-562 leukemia
NCI-H226 lung = tested on: NCI-H226 lung
NCI-H522 lung = tested on: NCI-H522 lung
SK-MEL-2 melanoma = tested on: SK-MEL-2 melanoma
UO-31 renal = tested on: UO-31 renal

Row | SMILES | TGI (786-0 renal) | TGI (CAKI-1 renal) | TGI (NCI-H23 lung) | TGI (SK-OV-3 ovarian) | TGI (K-562 leukemia) | TGI (NCI-H226 lung) | TGI (NCI-H522 lung) | TGI (SK-MEL-2 melanoma) | TGI (UO-31 renal) | GI50 (NCI-H226 lung) | GI50 (SK-MEL-2 melanoma)
1 | COc1ccc2c(c1O)C(=O)C(CCC(=O)O)CC2 (stereo not given) | > 100 µM | > 100 µM | > 100 µM | > 100 µM | – | – | – | – | – | – | –
2 | Nc1nc(Cl)cc(NCCCCCNc2cc(Cl)nc(N)n2)n1 | > 100 µM | > 100 µM | > 100 µM | > 100 µM | > 100 µM | > 100 µM | > 100 µM | > 100 µM | > 100 µM | – | –
3 | C=CCCOC(=O)CO[N+](=O)[O-] | > 100 µM | > 100 µM | > 100 µM | > 100 µM | > 100 µM | > 100 µM | > 100 µM | > 100 µM | > 100 µM | – | –
4 | CCC(=O)C1(c2ccccc2)CCN(C)CC1 | > 100 µM | > 100 µM | > 100 µM | > 100 µM | > 100 µM | – | – | – | > 100 µM | – | –
5 | C=CCCCn1ccc2ccccc21 | > 100 µM | – | > 100 µM | > 100 µM | > 100 µM | > 100 µM | > 100 µM | > 100 µM | > 100 µM | – | –
6 | C#Cc1c(C)c(/C=C/C(C)=C/C=C/C(C)=C/C(=O)OC)n(C)c1C | > 100 µM | > 100 µM | > 100 µM | > 100 µM | > 100 µM | – | > 100 µM | > 100 µM | > 100 µM | – | –
7 | CCCCCCCCCCCCCCCCOCC(CN(C)CCN(C)C)OCCCCCCCCCCCCCCCC (stereo not given) | > 100 µM | > 100 µM | > 100 µM | > 100 µM | > 100 µM | > 100 µM | > 100 µM | > 100 µM | > 100 µM | – | –
8 | CC1CN(c2ccc(Cl)cc2)CC(C)(C)OC(=O)O1 (stereo not given) | > 100 µM | > 100 µM | > 100 µM | > 100 µM | > 100 µM | > 100 µM | > 100 µM | > 100 µM | > 100 µM | – | –
9 | COc1ccc(/C=C/C(=O)C(C)(C)CN2CCCCC2)cc1 | 29.9 µM | – | 54.7 µM | 61.7 µM | 65.2 µM | 45.9 µM | 30 µM | 32.7 µM | 41.3 µM | – | –
10 | CC(=O)NC(CCCCN(Cc1ccccc1)C(=O)NCCCl)C(=O)NCc1ccccc1 (stereo not given) | > 100 µM | > 100 µM | > 100 µM | – | > 100 µM | > 100 µM | > 100 µM | > 100 µM | > 100 µM | – | –
11 | COc1cc(Br)c(CC2(C#N)c3ccccc3C3C(N2C(=O)c2ccccc2)C3(Cl)Cl)cc1OC (stereo not given) | > 65.5 µM | – | > 65.5 µM | > 65.5 µM | > 65.5 µM | > 65.5 µM | > 65.5 µM | > 65.5 µM | > 65.5 µM | – | –
12 | CC(/C=C/C(=O)c1sc(-n2nc(-c3ccccc3)cc2-c2ccccc2)nc1C)=C\c1ccccc1 | > 100 µM | > 100 µM | 68.1 µM | > 100 µM | > 100 µM | > 100 µM | > 100 µM | > 100 µM | > 100 µM | > 100 µM | –
13 | CC(=O)[O-].CC(=O)[O-].O=C(N/N=C/c1cc(Cl)cc(Cl)c1O)c1ccncc1.[Ni+2] | > 100 µM | – | > 100 µM | > 100 µM | > 100 µM | > 100 µM | > 100 µM | 87.4 µM | > 100 µM | – | 46.6 µM
14 | CCOc1cc2ccc3c4cc(OC)c(OC)cc4cnc3c2cc1OCC | > 100 µM | > 100 µM | > 100 µM | > 100 µM | > 100 µM | – | > 100 µM | > 100 µM | > 100 µM | – | –
15 | C[N+](C)(C)CC(=O)N/N=C(\CCC(=O)NCCc1ccccc1)CC(=O)c1ccccc1 | > 100 µM | > 100 µM | > 100 µM | > 100 µM | > 100 µM | > 100 µM | > 100 µM | > 100 µM | > 100 µM | – | –
16 | CC1=C(C(=O)Nc2ccccc2)C(c2ccc([N+](=O)[O-])cc2)C(C(=O)Nc2ccccc2)=C(C)N1 | 59 µM | – | 64.7 µM | – | 63.5 µM | > 100 µM | 63.8 µM | 31.4 µM | > 100 µM | – | –
17 | COC(=O)NC1(NC(=O)OC)NC(=O)c2cc(OC)c(OC)cc2N1 | > 100 µM | 61.9 µM | > 100 µM | – | > 100 µM | – | 80 µM | 67 µM | > 100 µM | – | –
18 | CCSC(SCC)c1cc2c(cc1Br)OCO2 | > 100 µM | – | 88.9 µM | 88.6 µM | 32.7 µM | 81.1 µM | > 100 µM | 51.9 µM | 85.3 µM | – | –
19 | COc1cc(OC)c2ssc3c(OC)cc(OC)c4ssc1c2-c43 | > 100 µM | > 100 µM | > 100 µM | > 100 µM | > 100 µM | > 100 µM | > 100 µM | > 100 µM | – | – | –
20 | CSc1nc(NC2OCC(OC(C)=O)C(OC(C)=O)C2OC(C)=O)c(N=C(C)C(C)=O)c(=O)n1C (stereo not given) | > 100 µM | > 100 µM | > 100 µM | > 100 µM | > 100 µM | > 100 µM | – | > 100 µM | > 100 µM | – | –
